BindingDB's records for patent US10730849 (Merck Sharp & Dohme Corp., 2020)

Biological target: T1, Stimulator of interferon genes protein [R71H,G230A,H232R,R293Q] (Homo sapiens, UniProt Q86WV6, G230A/H232R/R293Q/R71H)
T1 construct: gene STING1
Experiment: STING Biochemical [3H]cGAMP Competition Assay
Description: The binding assay employs STING receptor obtained from Hi-Five cell membranes overexpressing full-length HAQ STING prepared in-house and tritiated cGAMP ligand also purified in-house.

T1 sequence (Q86WV6 whole entry R71H/G230A/H232R/R293Q, looked up): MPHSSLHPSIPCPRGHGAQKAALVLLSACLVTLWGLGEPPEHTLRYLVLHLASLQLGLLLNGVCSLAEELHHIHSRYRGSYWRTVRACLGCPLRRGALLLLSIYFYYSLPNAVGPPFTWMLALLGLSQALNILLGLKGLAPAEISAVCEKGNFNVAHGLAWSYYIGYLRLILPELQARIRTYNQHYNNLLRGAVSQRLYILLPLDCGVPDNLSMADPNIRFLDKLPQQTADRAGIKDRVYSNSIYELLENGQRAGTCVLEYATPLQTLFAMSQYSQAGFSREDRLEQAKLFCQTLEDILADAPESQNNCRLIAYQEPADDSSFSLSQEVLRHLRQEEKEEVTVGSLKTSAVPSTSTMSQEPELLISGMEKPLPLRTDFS

An EC50 of 5.99 µM was found for `COc1cc2cc(C(=O)CCC(=O)OC(C)(C)C)sc2cc1OC` [US10730849, Example 12] in this work.
